The values below come from article PMC2748416 (Biochemistry, 2009).

Molecules are shown by their SMILES. Read-outs that look alike come from different tables or passages of the source.

For assay [1], the target named is T1, WT MshC (Mycolicibacterium smegmatis, UniProt A0QZY0).
T1 sequence (A0QZY0 1-412): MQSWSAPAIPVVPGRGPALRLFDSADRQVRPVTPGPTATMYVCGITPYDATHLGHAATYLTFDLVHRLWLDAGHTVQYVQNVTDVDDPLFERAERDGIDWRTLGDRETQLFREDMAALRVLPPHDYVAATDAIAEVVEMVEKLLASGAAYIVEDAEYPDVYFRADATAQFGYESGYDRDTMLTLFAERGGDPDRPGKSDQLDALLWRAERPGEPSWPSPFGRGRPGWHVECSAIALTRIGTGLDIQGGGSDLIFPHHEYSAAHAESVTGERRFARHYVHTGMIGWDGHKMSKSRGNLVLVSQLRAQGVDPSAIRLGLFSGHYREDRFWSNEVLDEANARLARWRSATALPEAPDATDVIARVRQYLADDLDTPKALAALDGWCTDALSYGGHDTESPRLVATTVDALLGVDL
Description: Coupled spectrophotometric enzyme assay. The settings on record: for Km: steady state, pH 7.8, 25 °C. Type of assay: biochemical, Mycobacterium smegmatis.

The target in a further assay is MshC H55A (Mycolicibacterium smegmatis, UniProt A0QZY0, H55A). The experiment in a line: Chemical rescue of enzyme activity by exogenous imidazole. It is filed as biochemical, Mycobacterium smegmatis.
Assay [2] has as its target T1, WT MshC. The experiment in a line: Effect of added imidazole on enzyme activity. Type of assay: biochemical, Mycobacterium smegmatis.
Assay [3] addresses T1, WT MshC. Description: Tryptophan fluorescence titration of inhibitor binding. Further details: species or system Mycobacterium smegmatis. As to conditions: fluorescence method, 0.1 μM protein, pH 7.8, 25 °C.
Assay [4] addresses T2, MshC H55A mutant (Mycolicibacterium smegmatis, UniProt A0QZY0, H55A). The description is as above. Further details: species or system Mycobacterium smegmatis. The settings on record: fluorescence method, 0.1 μM protein, pH 7.8, 25 °C.
Assay [5] deals with T3, MshC W227F mutant (Mycolicibacterium smegmatis, UniProt A0QZY0, W227F). The assay is described as above. Further details: species or system Mycobacterium smegmatis. The settings on record: fluorescence method, 0.1 μM protein, pH 7.8, 25 °C.
For assay [6], the target named is T4, MshC W227H mutant (Mycolicibacterium smegmatis, UniProt A0QZY0, W227H). The assay is described as above. The settings on record: fluorescence method, 0.1 μM protein, pH 7.8, 25 °C. Further details: species or system Mycobacterium smegmatis.
In assay [7] the target is T5, MshC T46V mutant (Mycolicibacterium smegmatis, UniProt A0QZY0, T46V). The assay is described as above. Further details: species or system Mycobacterium smegmatis. The settings on record: fluorescence method, 0.1 μM protein, pH 7.8, 25 °C.
Assay [8] concerns the target T6, MshC D251N mutant (Mycolicibacterium smegmatis, UniProt A0QZY0, D251N). The assay is described as above. The settings on record: fluorescence method, 0.1 μM protein, pH 7.8, 25 °C. Further details: species or system Mycobacterium smegmatis.
For assay [9], the target named is T7, MshC D251A mutant (Mycolicibacterium smegmatis, UniProt A0QZY0, D251A). The assay is described as above. Further details: species or system Mycobacterium smegmatis. The settings on record: fluorescence method, 0.1 μM protein, pH 7.8, 25 °C.
The target in assay [10] is T2, MshC H55A mutant. The settings on record: for Km: steady state, pH 7.8, 25 °C.
Assay [11] addresses T3, MshC W227F mutant.
Assay [12] concerns the target T4, MshC W227H mutant.
For assay [13], the target named is T5, MshC T46V mutant.
In assay [14] the target is T6, MshC D251N mutant.
The target of assay [15] is T7, MshC D251A mutant.
The next assay has as its target MshC T83V mutant (Mycolicibacterium smegmatis, UniProt A0QZY0, T83V). Type of assay: biochemical, Mycobacterium smegmatis.
Assay [16] addresses T1, WT MshC. The experiment in a line: Pre-steady state kinetics of cysteine adenylation. It is filed as biochemical, Mycobacterium smegmatis.
Assay [17] addresses T2, MshC H55A mutant. The experiment in a line: Pre-steady state kinetics of cysteine adenylation. As to conditions: read-out: Kd-ATP; first half reaction, fit to eq 9. It is filed as biochemical, Mycobacterium smegmatis.
Assay [18] deals with T6, MshC D251N mutant. Description: Pre-steady state kinetics of cysteine adenylation. The settings on record: read-out: Kd-ATP; first half reaction, fit to eq 9. Type of assay: biochemical, Mycobacterium smegmatis.
The target of assay [19] is T1, WT MshC. The settings on record: up to 10 mM ATP; cited from earlier work.
Assay [20] concerns the target T3, MshC W227F mutant. Description: Pre-steady state kinetics of cysteine adenylation. Type of assay: biochemical, Mycobacterium smegmatis.
For assay [21], the target named is T5, MshC T46V mutant. Description: Pre-steady state kinetics of cysteine adenylation. It is filed as biochemical, Mycobacterium smegmatis.
[22] abbreviates: read-out: Km-ATP, steady state, pH 7.8, 25 °C.
Where [23] appears, read: read-out: Km-cys, steady state, pH 7.8, 25 °C.
[24] abbreviates: read-out: Km-GlcN-Ins, at fixed saturating concentrations of ATP and cysteine.

As for `N[C@@H](CO)C(=O)O` [serine], at WT MshC [1] (tested up to 5 mM), the activity as substrate entry was “no activity”.

`c1c[nH]cn1` [imidazole]: at MshC H55A (100 mM added imidazole, pH 6.75), the “increase of kcat value” is given as “seven-fold increase”. Further, the “change in enzyme activity upon addition of imidazole” value on MshC H55A (pH 7.8 and pH 9) is “no changes”. Moreover, the “effect of added imidazole on enzyme activity” value on WT MshC [2] was “No significant activating or inhibitory effect”.

On to `Nc1ncnc2c1ncn2[C@@H]1O[C@H](COS(=O)(=O)NC(=O)[C@@H](N)CS)[C@@H](O)[C@H]1O` [CSA, 5'-O-[N-(L-cysteinyl)-sulfamonyl]adenosine, reference compound], for which the Ki – broadly, the equilibrium dissociation constant of an inhibitor or competing ligand from its target – at WT MshC [1] was 0.304 ± 0.04 µM; at MshC H55A mutant [10], 0.89 ± 0.06 µM; on MshC W227F mutant [11], 0.056 ± 0.008 µM; at MshC W227H mutant [12], 0.03 ± 0.005 µM; at MshC T46V mutant [13], 0.36 ± 0.047 µM; on MshC D251N mutant [14] it was 0.52 ± 0.11 µM. This compound yielded a Ki on MshC D251A mutant [15] of 0.93 ± 0.17 µM. In addition, the dissociation constant Kd (as a rule, the concentration at which binding is half-saturated) on WT MshC [3] stood at 0.11 ± 0.01 µM; on MshC H55A mutant [4], 0.35 ± 0.02 µM; on MshC W227F mutant [5], 0.053 ± 0.01 µM; on MshC W227H mutant [6], 0.045 ± 0.002 µM; on MshC T46V mutant [7] it was 0.15 ± 0.01 µM; on MshC D251N mutant [8], 0.18 ± 0.013 µM. This compound had a Kd on MshC D251A mutant [9] of 0.34 ± 0.01 µM.

`Nc1ncnc2c1ncn2[C@@H]1O[C@H](COP(=O)(O)OP(=O)(O)OP(=O)(O)O)[C@@H](O)[C@H]1O` [ATP]: the Km (as a rule, the substrate concentration at which the rate is half of its maximum) on WT MshC [1] (read-out: Km-ATP) stood at 1800 ± 100 µM; at MshC T83V mutant (setting [22]) it was 320 ± 60 µM; on MshC H55A mutant [10] (read-out: Km-ATP), 5200 ± 100 µM; at MshC W227F mutant [11] (setting [22]), 200 ± 50 µM; on MshC W227H mutant [12] (setting [22]), 120 ± 10 µM; on MshC T46V mutant [13] (setting [22]), 1100 ± 30 µM. Besides, the figures for the Michaelis-Menten constant (Km) on MshC D251N mutant [14] (setting [22]) and at MshC D251A mutant [15] (setting [22]) were 8900 ± 1600 µM and 360 ± 11 µM, respectively. Also, the Kd amounted to 1700 ± 200 µM at WT MshC [16] (read-out: Kd-ATP, first half reaction, fit to eq 9); 15000 ± 3000 µM at MshC H55A mutant [17]; 10200 ± 2800 µM at MshC D251N mutant [18]. Besides, the results for the substrate inhibition entry on MshC D251N mutant [14] (up to 20 mM ATP) and on WT MshC [19] were “not observed” and “no substrate inhibition”, respectively. At MshC D251A mutant [15] (2 mM cysteine, 200 μM GlcN-Ins), the “ATP concentration above which enzyme activity decreases” value is reported as ~ 1.1 mM.

`N[C@@H](CS)C(=O)O` [cys, L-cysteine]: the Michaelis constant (Km) is 20 ± 1 µM on MshC T83V mutant (setting [23]); 1100 ± 200 µM on MshC H55A mutant [10] (read-out: Km-cys); 400 ± 100 µM at MshC W227F mutant [11] (setting [23]); 120 ± 40 µM on MshC W227H mutant [12] (setting [23]); 1900 ± 200 µM at MshC T46V mutant [13] (setting [23]); 480 ± 150 µM at MshC D251N mutant [14] (setting [23]). Moreover, the Km on MshC D251A mutant [15] (setting [23]) was 170 ± 20 µM. The values for the Kd on WT MshC [16], at MshC W227F mutant [20] and on MshC T46V mutant [21] were 160 ± 30 µM, 600 ± 100 µM and 800 ± 100 µM, respectively.

As for `N[C@H]1[C@@H](OC2[C@H](O)[C@H](O)C(O)[C@H](O)[C@H]2O)O[C@H](CO)[C@@H](O)[C@@H]1O` (stereo partly shown) [GlcN-Ins, glucosamine-inositol], the Km on WT MshC [1] (read-out: Km-GlcN-Ins) amounted to 160 ± 50 µM; at MshC T83V mutant (setting [24]), 170 ± 50 µM; at MshC W227F mutant [11] (setting [24]) it was 150 ± 60 µM; at MshC W227H mutant [12] (setting [24]), 600 ± 10 µM; on MshC T46V mutant [13] (setting [24]) it was 150 ± 80 µM; at MshC D251N mutant [14] (setting [24]), 100 ± 60 µM. The Km at MshC D251A mutant [15] (setting [24]) was 160 ± 10 µM.
